Patent US12629374B2, “Antimalarial agents” (Merck Sharp & Dohme LLC, priority 2020, dated 2026)
Like-named read-outs stand apart in the source and are kept apart here.

Test system: ring stage parasites
Assay: Parasite growth potency assay, 72 hours, LDH readout
Type: cell-based
Conditions: parasite growth measured by LDH assay after 72 hours at 37° C., 0.7% rings, 2% haematocrit, read-out: EC50
In short: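 Parasite growth was quantified by LDH assay after a −80 °C freeze-thaw. Before that, compound was incubated for 72 h at 37 °C under humidified gas with ring-stage cultures adjusted to 0.7% parasitemia and 2% haematocrit in serum- and albumax-supplemented RPMI-Hepes.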

How did the EC50 (72 h) turn out when `CCC1(CC)CC(=O)N(Cc2cccc(C(=O)N[C@H]3CCc4ccccc43)c2)C(=N)N1` [Example 77, [4,4-diethyl-1-[[3-[[(1S)-indan-1-yl]carbamoyl]phenyl]methyl]-6-oxo-hexahydropyrimidin-2-ylidene]ammonium; 2,2,2-trifluoroacetate] was run?
The EC50 was 14.7 nM.

How did the EC50 (72 h) turn out when `C=C=C(C)[C@H](c1cccc(C(=O)N[C@H]2CCOc3ccccc32)c1)N1C(=N)NC(CC)(CC)CC1=O` [Example 78, [1-[1-[3-[[(4S)-chroman-4-yl]carbamoyl]phenyl]-2-methyl-buta-2,3-dienyl]-4,4-diethyl-6-oxo-hexahydropyrimidin-2-ylidene]ammonium; 2,2,2-trifluoroacetate] was run?
Its EC50 is 3.1 nM.

With `CC(C)[C@]1(C)CC(=O)N(Cc2cccc(C(=O)NC3CC(C)(C)Oc4ccccc43)c2)C(=N)N1` (stereo partly drawn) [Example 79, [(4S)-1-[[3-[(2,2-dimethylchroman-4-yl)carbamoyl]phenyl]methyl]-4-isopropyl-4-methyl-6-oxo-hexahydropyrimidin-2-ylidene]ammonium; 2,2,2-trifluoroacetate] as the compound, how does the EC50 (72 h) read?
The EC50 was 2.1 nM.

With `CCC1(CC)CC(=O)N(Cc2cc(C(=O)NC3CC(C)(C)Oc4ccccc43)ccn2)C(=N)N1` (stereo not shown) [Example 80, [1-[[4-[(2,2-dimethylchroman-4-yl)carbamoyl]pyridin-1-ium-2-yl]methyl]-4,4-diethyl-6-oxo-hexahydropyrimidin-2-ylidene]ammonium; 2,2,2-trifluoroacetate] as the compound, how does the EC50 (72 h) read?
Its EC50 is 1.7 nM.

For `CCC1(CC)CC(=O)N(Cc2cncc(C(=O)NC3CC(C)(C)Oc4ccccc43)c2)C(=N)N1` (stereo not shown) [Example 81, [1-[[5-[(2,2-dimethylchroman-4-yl)carbamoyl]pyridin-1-ium-3-yl]methyl]-4,4-diethyl-6-oxo-hexahydropyrimidin-2-ylidene]ammonium; 2,2,2-trifluoroacetate], which EC50 (trifluoroacetate) is on record?
Its EC50 is 1.3 nM.

How did the EC50 (trifluoroacetate) turn out when `CCC1(CC)CC(=O)N(Cc2cncc(C(=O)NC3CC(C)(C)Oc4ccccc43)c2)C(=N)N1` (stereo not shown) [Example 82, [1-[[5-[(2,2-dimethylchroman-4-yl)carbamoyl]pyridin-1-ium-3-yl]methyl]-4,4-diethyl-6-oxo-hexahydropyrimidin-2-ylidene]ammonium; 2,2,2-trifluoroacetate] was run?
Its EC50 is 39.4 nM.

How did the EC50 (72 h) turn out when `CC#CCCC(c1cccc(C(=O)NC2CC(C)(C)Oc3ccccc32)c1)N1C(=N)NC(CC)(CC)CC1=O` (stereo not shown) [Example 83A, [1-[1-[3-[(2,2-dimethylchroman-4-yl)carbamoyl]phenyl]hex-4-ynyl]-4,4-diethyl-6-oxo-hexahydropyrimidin-2-ylidene]ammonium; 2,2,2-trifluoroacetate] was run?
The EC50 was 62.9 nM.

How did the EC50 (trifluoroacetate) turn out when `CC#CCCC(c1cccc(C(=O)NC2CC(C)(C)Oc3ccccc32)c1)N1C(=N)NC(CC)(CC)CC1=O` (stereo not shown) [Example 83C, [1-[1-[3-[(2,2-dimethylchroman-4-yl)carbamoyl]phenyl]hex-4-ynyl]-4,4-diethyl-6-oxo-hexahydropyrimidin-2-ylidene]ammonium; 2,2,2-trifluoroacetate] was run?
Its EC50 is 50.2 nM.

Which EC50 (72 h) does the source give for `CCC1(CC)CC(=O)N(Cc2cc(C#N)cc(C(=O)N[C@H]3CCOc4ccccc43)c2)C(=N)N1` [Example 84, [1-[[3-[[(4S)-chroman-4-yl]carbamoyl]-5-cyano-phenyl]methyl]-4,4-diethyl-6-oxo-hexahydropyrimidin-2-ylidene]ammonium; 2,2,2-trifluoroacetate] here?
Its EC50 is 8.3 nM.

Which EC50 (72 h) does the source give for `CCC1(CC)CC(=O)N([C@@H](c2cccc(C(=O)N[C@H]3CCOc4ccccc43)c2)c2cncs2)C(=N)N1` [Example 85A, N-[(4S)-chroman-4-yl]-3-[(4,4-diethyl-2-imino-6-oxo-hexahydropyrimidin-1-yl)-thiazol-5-yl-methyl]benzamide] here?
Its EC50 is 1 nM.

Which EC50 (72 h) does the source give for `CCC1(COC)CC(=O)N(Cc2cccc(C(=O)N[C@H]3CCOc4ccccc43)c2)C(=N)N1` (stereo partly drawn) [Example 86, [1-[[3-[[(4S)-chroman-4-yl]carbamoyl]phenyl]methyl]-4-ethyl-4-(methoxymethyl)-6-oxo-hexahydropyrimidin-2-ylidene]ammonium; 2,2,2-trifluoroacetate] here?
Its EC50 is 49.6 nM.

With `CCC1(COC)CC(=O)N(Cc2cccc(C(=O)N[C@@H]3c4ccccc4C[C@H]3O)c2)C(=N)N1` (stereo partly drawn) [Example 95, [4-ethyl-1-[[3-[[(1R,2R)-2-hydroxyindan-1-yl]carbamoyl]phenyl]methyl]-4-(methoxymethyl)-6-oxo-hexahydropyrimidin-2-ylidene]ammonium; 2,2,2-trifluoroacetate] as the compound, how does the EC50 (72 h) read?
The EC50 was 43.2 nM.

Which EC50 (72 h) does the source give for `CCC1(CC)CC(=O)N([C@@H](c2cccc(C(=O)N[C@H]3CC(C)(C)Oc4ccccc43)c2)C(C)c2cccnc2)C(=N)N1` (stereo partly drawn) [Example 96, [1-[1-[3-[[(4S)-2,2-dimethylchroman-4-yl]carbamoyl]phenyl]-2-pyridin-1-ium-3-yl-propyl]-4,4-diethyl-6-oxo-hexahydropyrimidin-2-ylidenelammonium; 2,2,2-trifluoroacetate] here?
The EC50 was 19.9 nM.

How did the EC50 (72 h) turn out when `CCC1(COC)CC(=O)N(Cc2cccc(C(=O)N[C@H]3CC(C)(C)Oc4ccccc43)c2)C(=N)N1` (stereo partly drawn) [Example 98A, [1-[[3-[[(4S)-2,2-dimethylchroman-4-yl]carbamoyl]phenyl]methyl]-4-ethyl-4-(methoxymethyl)-6-oxo-hexahydropyrimidin-2-ylidene]ammonium; 2,2,2-trifluoroacetate] was run?
Its EC50 is 15.5 nM.

How did the EC50 (trifluoroacetate) turn out when `CCC1(COC)CC(=O)N(Cc2cccc(C(=O)N[C@H]3CC(C)(C)Oc4ccccc43)c2)C(=N)N1` (stereo partly drawn) [Example 98B, [1-[[3-[[(4S)-2,2-dimethylchroman-4-yl]carbamoyl]phenyl]methyl]-4-ethyl-4-(methoxymethyl)-6-oxo-hexahydropyrimidin-2-ylidene]ammonium; 2,2,2-trifluoroacetate] was run?
Its EC50 is 8.1 nM.

`CCC1(CC)CC(=O)N([C@H](c2cncc(F)c2)c2cccc(C(=O)N[C@H]3CC(C)(C)Oc4ccccc43)c2)C(=N)N1` [Example 99A, [1-[[3-[[(4S)-2,2-dimethylchroman-4-yl]carbamoyl]phenyl]-(5-fluoropyridin-1-ium-3-yl)methyl]-4,4-diethyl-6-oxo-hexahydropyrimidin-2-ylidene]ammonium; 2,2,2-trifluoroacetate] was tested. Which EC50 (72 h) did it give?
Its EC50 is 0.6 nM.

For `CCC1(CC)CC(=O)N([C@@H](c2cncc(F)c2)c2cccc(C(=O)N[C@H]3CC(C)(C)Oc4ccccc43)c2)C(=N)N1` [Example 99B, [1-[[3-[[(4S)-2,2-dimethylchroman-4-yl]carbamoyl]phenyl]-(5-fluoropyridin-1-ium-3-yl)methyl]-4,4-diethyl-6-oxo-hexahydropyrimidin-2-ylidene]ammonium; 2,2,2-trifluoroacetate], which EC50 (72 h) is on record?
The EC50 was 2 nM.

For `CCC1(CC)CC(=O)N([C@H](c2cccnc2)c2cccc(C(=O)N[C@H]3CC(C)(C)Oc4ccccc43)c2)C(=N)N1` [Example 100A, [1-[[3-[[(4S)-2,2-dimethylchroman-4-yl]carbamoyl]phenyl]-pyridin-1-ium-3-yl-methyl]-4,4-diethyl-6-oxo-hexahydropyrimidin-2-ylidene]ammonium; 2,2,2-trifluoroacetate], which EC50 (72 h) is on record?
The EC50 was 0.4 nM.

For `CCC1(CC)CC(=O)N([C@@H](c2cccnc2)c2cccc(C(=O)N[C@H]3CC(C)(C)Oc4ccccc43)c2)C(=N)N1` [Example 100B, [1-[[3-[[(4S)-2,2-dimethylchroman-4-yl]carbamoyl]phenyl]-pyridin-1-ium-3-yl-methyl]-4,4-diethyl-6-oxo-hexahydropyrimidin-2-ylidene]ammonium; 2,2,2-trifluoroacetate], which EC50 (72 h) is on record?
The EC50 was 4.8 nM.

How did the EC50 (72 h) turn out when `CC(C)[C@]1(C)CC(=O)N([C@H](c2cccnc2)c2cccc(C(=O)N[C@H]3CC(C)(C)Oc4ccccc43)c2)C(=N)N1` [Example 101A, [(4S)-1-[[3-[[(4S)-2,2-dimethylchroman-4-yl]carbamoyl]phenyl]-pyridin-1-ium-3-yl-methyl]-4-isopropyl-4-methyl-6-oxo-hexahydropyrimidin-2-ylidene]ammonium; 2,2,2-trifluoroacetate] was run?
Its EC50 is 0.3 nM.

Which EC50 (72 h) does the source give for `CC(C)[C@]1(C)CC(=O)N([C@@H](c2cccnc2)c2cccc(C(=O)N[C@H]3CC(C)(C)Oc4ccccc43)c2)C(=N)N1` [Example 101B, [(4S)-1-[[3-[[(4S)-2,2-dimethylchroman-4-yl]carbamoyl]phenyl]-pyridin-1-ium-3-yl-methyl]-4-isopropyl-4-methyl-6-oxo-hexahydropyrimidin-2-ylidene]ammonium; 2,2,2-trifluoroacetate] here?
The EC50 was 1.5 nM.

For `CCC[C@H](c1cccc(C(=O)N[C@@H]2c3ccccc3C[C@H]2O)c1)N1C(=N)NC(CC)(CC)CC1=O` [Example 102, [4,4-diethyl-1-[(1R)-1-[3-[[(1R,2R)-2-hydroxyindan-1-yl]carbamoyl]phenyl]butyl]-6-oxo-hexahydropyrimidin-2-ylidene]ammonium; 2,2,2-trifluoroacetate], which EC50 (72 h) is on record?
Its EC50 is 0.5 nM.

For `CCC1(CC)CC(=O)N([C@H](CCOC)c2cncc(C(=O)N[C@H]3CC(C)(C)Oc4ccccc43)c2)C(=N)N1` [Example 103, [1-[1-[5-I(4S)-2,2-dimethylchroman-4-yl]carbamoyl]pyridin-1-ium-3-yl]-3-methoxy-propyl]-4,4-diethyl-6-oxo-hexahydropyrimidin-2-ylidene]ammonium; 2,2,2-trifluoroacetate], which EC50 (72 h) is on record?
The EC50 was 0.5 nM.

Which EC50 (72 h) does the source give for `COCC[C@H](c1cncc(C(=O)N[C@H]2CC(C)(C)Oc3ccccc32)c1)N1C(=N)N[C@](C)(C(C)C)CC1=O` [Example 104, [(4S)-1-[1-[5-[[(4S)-2,2-dimethylchroman-4-yl]carbamoyl]pyridin-1-ium-3-yl]-3-methoxy-propyl]-4-isopropyl-4-methyl-6-oxo-hexahydropyrimidin-2-ylidene]ammonium; 2,2,2-trifluoroacetate] here?
Its EC50 is 0.9 nM.

With `CCC1(CC)CC(=O)N(C(c2cncc(C(=O)N[C@H]3CC(C)(C)Oc4ccccc43)c2)c2cncs2)C(=N)N1` (stereo partly drawn) [Example 105A, [1-[[5-[[(4S)-2,2-dimethylchroman-4-yl]carbamoyl]pyridin-1-ium-3-yl]-thiazol-5-yl-methyl]-4,4-diethyl-6-oxo-hexahydropyrimidin-2-ylidene]ammonium; 2,2,2-trifluoroacetate] as the compound, how does the EC50 (72 h) read?
The EC50 was 0.5 nM.
